Assay results as given in the supplement of paper PMC10307832.

Columns and labels:
Assay in all cases: relative viability (nuclei count vs DMSO), 5 days (fraction); higher = more cells survive
[1] = compound: NCC(=O)Nc1ccc(-n2nc(C(F)(F)F)cc2-c2ccc3c(ccc4ccccc43)c2)cc1 + CC(=O)c1c(C)c2cnc(Nc3ccc(N4CCNCC4)cn3)nc2n(C2CCCC2)c1=O [Palbociclib] (partner 0.5 µM)
Outline: (§1)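 Nuclei were stained with Hoechst during a one-step fixation (final 0.05% Triton X-100, 1% formaldehyde, 1 ug/ml Hoechst) carried out 5 days after dosing, then counted on 4× images. The cells, lung cancer lines in 1536-well plates, had been dosed by pin tool the day after seeding with one drug alone or a fixed anchor-drug dose plus five library-drug doses (not always all listed) in √10 steps. Relative viability is the nuclei count in treated wells divided by that in vehicle wells, and each value is the median of duplicate plates.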

kb NB 142-70 + Lapatinib = compound: C1CSC2=C(C(=O)N1)SC3=C2C=C(C=C3)O [kb NB 142-70] + CS(=O)(=O)CCNCc1ccc(-c2ccc3ncnc(Nc4ccc(OCc5cccc(F)c5)c(Cl)c4)c3c2)o1 [Lapatinib] (partner 2 µM)
Outline: as §1

[2] = compound: NCC(=O)Nc1ccc(-n2nc(C(F)(F)F)cc2-c2ccc3c(ccc4ccccc43)c2)cc1 + N=C(N)NC(=N)NCCc1ccccc1 [Phenformin] (partner 250 µM)
Outline: as §1

[3] = compound: NCC(=O)Nc1ccc(-n2nc(C(F)(F)F)cc2-c2ccc3c(ccc4ccccc43)c2)cc1 + Cc1nc(Nc2ncc(C(=O)Nc3c(C)cccc3Cl)s2)cc(N2CCN(CCO)CC2)n1 [Dasatinib] (partner 0.075 µM)
Outline: as §1

Cell Line | relative viability ([1]; first compound 0.02 µM) | relative viability ([1]; first compound 0.06325 µM) | relative viability ([1]; first compound 0.2 µM) | relative viability ([1]; first compound 0.6325 µM) | relative viability ([1]; first compound 2 µM) | relative viability (kb NB 142-70 + Lapatinib; first compound 0.1 µM) | relative viability (kb NB 142-70 + Lapatinib; first compound 1 µM) | relative viability (kb NB 142-70 + Lapatinib; first compound 3.162 µM) | relative viability ([2]; first compound 0.02 µM) | relative viability ([2]; first compound 0.06325 µM) | relative viability ([2]; first compound 0.2 µM) | relative viability ([2]; first compound 0.6325 µM) | relative viability ([2]; first compound 2 µM) | relative viability ([3]; first compound 0.02 µM) | relative viability ([3]; first compound 0.06325 µM) | relative viability ([3]; first compound 0.2 µM) | relative viability ([3]; first compound 0.6325 µM) | relative viability ([3]; first compound 2 µM)
NCI-H1648 | 0.283 | 0.267 | 0.268 | 0.281 | 0.264 |  |  |  |  |  |  |  |  |  |  |  |  | 
SK-MES-1 | 0.34 | 0.294 | 0.329 | 0.325 | 0.387 | 0.448 | 0.503 | 0.541 | 0.707 | 0.705 | 0.662 | 0.666 | 0.704 | 0.473 | 0.372 | 0.365 | 0.355 | 0.406
HCC-366 | 0.399 | 0.449 | 0.378 | 0.394 | 0.355 | 1.06 | 0.926 | 0.927 | 0.589 | 0.649 | 0.595 | 0.625 | 0.596 | 0.659 | 0.644 | 0.615 | 0.621 | 0.624
201T | 0.342 | 0.374 | 0.366 | 0.363 | 0.351 | 1.05 | 1.06 | 1.06 | 0.448 | 0.489 | 0.408 | 0.466 | 0.446 | 0.518 | 0.571 | 0.56 | 0.53 | 0.542
HCC-827 | 0.501 | 0.545 | 0.509 | 0.486 | 0.504 | 0.206 | 0.192 | 0.173 | 0.397 | 0.431 | 0.406 | 0.385 | 0.385 | 0.371 | 0.282 | 0.336 | 0.329 | 0.35
NCI-H647 | 0.431 | 0.385 | 0.564 | 0.294 | 0.402 | 1.11 | 1.08 | 0.836 | 0.451 | 0.576 | 0.629 | 0.463 | 0.558 | 0.205 | 0.167 | 0.227 | 0.193 | 0.208
NCI-H2023 | 0.461 | 0.414 | 0.391 | 0.345 | 0.297 | 0.809 | 0.758 | 0.486 | 0.414 | 0.441 | 0.403 | 0.454 | 0.412 | 0.649 | 0.549 | 0.618 | 0.6 | 0.552
NCI-H520 | 0.222 | 0.224 | 0.24 | 0.193 | 0.258 | 0.826 | 0.848 | 0.464 | 0.574 | 0.628 | 0.641 | 0.625 | 0.618 | 0.207 | 0.206 | 0.177 | 0.213 | 0.212
RERF-LC-KJ | 0.936 | 1.2 | 1.03 | 1.06 | 1.02 | 0.956 | 0.88 | 0.942 | 0.41 | 0.458 | 0.412 | 0.409 | 0.403 | 0.809 | 0.985 | 0.835 | 0.878 | 0.76
A-427 | 0.502 | 0.567 | 0.527 | 0.526 | 0.534 | 1.12 | 1.14 | 1.04 |  | 0.411 | 0.315 | 0.334 | 0.352 |  | 0.692 | 0.724 | 0.682 | 0.672
NCI-H441 | 0.242 | 0.258 | 0.265 | 0.228 | 0.25 |  |  |  | 0.898 | 0.819 | 0.954 | 1.01 | 0.844 | 0.444 | 0.665 | 0.729 | 0.548 | 0.681
NCI-H1703 |  |  |  |  |  | 1.1 | 1.08 | 1.31 |  |  |  |  |  |  |  |  |  | 
NCI-H1792 | 0.651 |  | 0.696 | 0.591 | 0.66 | 0.87 | 0.85 | 1.03 | 0.325 | 0.364 | 0.297 | 0.337 | 0.411 | 0.605 |  | 0.915 | 0.836 | 0.726
Calu-6 |  |  |  |  |  | 1.07 | 0.972 | 0.627 |  |  |  |  |  |  |  |  |  | 
SK-LU-1 | 0.447 | 0.442 | 0.404 | 0.372 | 0.434 | 0.865 | 0.802 | 0.527 | 0.514 | 0.584 | 0.617 | 0.502 | 0.55 | 0.165 | 0.186 | 0.181 | 0.175 | 0.181
PC-3 [JPC-3] | 0.536 | 0.561 | 0.578 | 0.524 | 0.571 | 0.452 | 0.481 | 0.433 | 0.497 | 0.486 | 0.439 | 0.485 | 0.492 | 1.08 | 0.981 | 1.02 | 1.03 | 1.11
EMC-BAC-2 | 0.514 | 0.513 | 0.537 | 0.518 | 0.532 | 0.942 | 0.898 | 0.743 | 0.472 | 0.488 | 0.549 | 0.56 | 0.541 | 0.316 | 0.286 | 0.325 | 0.377 | 0.338
